# Results as given in patent US8471005B2 (Cephalon, Inc., priority 2008, dated 2013).
# Where two headings read alike, the source gives them in different places.
# Key:
# ALK = target: T1, ALK (Homo sapiens, UniProt Q9UM73); experiment: ALK Kinase Assay (ELISA/TRF, PLC-γ substrate); format: biochemical; details: read-out: ALK Potency
# T1 construct: host or cells: baculovirus expression system
# How it was run: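 PLC-γ substrate coated at 10 μg/mL in TBS; reaction started with 30 ng/ml ALK, run 15 min at 37° C. Phosphoproduct detected by TRF with Eu-N1-labeled PT66 anti-phosphotyrosine antibody. IC50 from sigmoidal variable-slope fit of percent inhibition versus log concentration.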
# JAK2 = target: T2, JAK2 (Homo sapiens, UniProt O60674); experiment: Recombinant Human JAK2 Kinase Assay (TRF); format: biochemical; details: read-out: JAK2 Potency
# T2 construct: host or cells: baculovirus expression system
# T2 sequence (O60674 whole entry): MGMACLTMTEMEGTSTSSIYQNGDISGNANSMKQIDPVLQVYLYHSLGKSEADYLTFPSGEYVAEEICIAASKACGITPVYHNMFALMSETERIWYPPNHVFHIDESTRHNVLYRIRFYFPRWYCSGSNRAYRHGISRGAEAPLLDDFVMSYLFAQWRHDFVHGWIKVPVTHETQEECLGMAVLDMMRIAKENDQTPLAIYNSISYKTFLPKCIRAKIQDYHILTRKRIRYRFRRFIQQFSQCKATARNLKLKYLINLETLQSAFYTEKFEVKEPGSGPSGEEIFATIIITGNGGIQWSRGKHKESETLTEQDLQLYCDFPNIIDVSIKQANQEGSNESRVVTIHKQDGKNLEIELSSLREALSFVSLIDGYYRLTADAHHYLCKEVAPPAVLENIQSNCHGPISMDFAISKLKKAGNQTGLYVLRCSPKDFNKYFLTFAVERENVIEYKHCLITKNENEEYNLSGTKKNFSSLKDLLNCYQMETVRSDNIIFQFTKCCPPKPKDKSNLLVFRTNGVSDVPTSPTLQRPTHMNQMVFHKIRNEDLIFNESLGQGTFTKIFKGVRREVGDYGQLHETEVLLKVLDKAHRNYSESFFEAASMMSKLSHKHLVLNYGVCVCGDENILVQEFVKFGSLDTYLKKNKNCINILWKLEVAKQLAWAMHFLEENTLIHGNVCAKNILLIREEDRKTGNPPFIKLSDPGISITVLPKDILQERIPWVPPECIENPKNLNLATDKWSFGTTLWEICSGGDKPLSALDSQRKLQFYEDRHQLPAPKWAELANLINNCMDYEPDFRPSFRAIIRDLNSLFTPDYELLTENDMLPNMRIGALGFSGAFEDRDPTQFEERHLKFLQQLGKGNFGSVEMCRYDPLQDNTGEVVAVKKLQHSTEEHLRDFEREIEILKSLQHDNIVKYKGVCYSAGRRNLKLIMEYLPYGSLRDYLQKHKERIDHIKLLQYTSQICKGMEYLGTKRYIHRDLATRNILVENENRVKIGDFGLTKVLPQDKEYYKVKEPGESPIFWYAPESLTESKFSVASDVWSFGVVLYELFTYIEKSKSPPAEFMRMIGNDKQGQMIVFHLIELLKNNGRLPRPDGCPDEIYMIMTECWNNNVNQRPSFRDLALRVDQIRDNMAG
# How it was run: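 Europium-labelled PY100 antibody reported tyrosine phosphorylation of a Neutravidin-captured biotinyl 15-mer peptide by JAK2 (baculovirus-expressed, 15 ng/ml). Conditions: 20 mM HEPES pH 7.2, 0.2 μM ATP, 1 mM MnCl2, 0.1% BSA, DMSO 2.5% final, 20 min at room temperature.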
# [1] = ALK kinase inhibition, 1 μM ATP
# [2] = JAK2 kinase inhibition, 0.2 μM ATP
# T1 sequence (Q9UM73 19-1620): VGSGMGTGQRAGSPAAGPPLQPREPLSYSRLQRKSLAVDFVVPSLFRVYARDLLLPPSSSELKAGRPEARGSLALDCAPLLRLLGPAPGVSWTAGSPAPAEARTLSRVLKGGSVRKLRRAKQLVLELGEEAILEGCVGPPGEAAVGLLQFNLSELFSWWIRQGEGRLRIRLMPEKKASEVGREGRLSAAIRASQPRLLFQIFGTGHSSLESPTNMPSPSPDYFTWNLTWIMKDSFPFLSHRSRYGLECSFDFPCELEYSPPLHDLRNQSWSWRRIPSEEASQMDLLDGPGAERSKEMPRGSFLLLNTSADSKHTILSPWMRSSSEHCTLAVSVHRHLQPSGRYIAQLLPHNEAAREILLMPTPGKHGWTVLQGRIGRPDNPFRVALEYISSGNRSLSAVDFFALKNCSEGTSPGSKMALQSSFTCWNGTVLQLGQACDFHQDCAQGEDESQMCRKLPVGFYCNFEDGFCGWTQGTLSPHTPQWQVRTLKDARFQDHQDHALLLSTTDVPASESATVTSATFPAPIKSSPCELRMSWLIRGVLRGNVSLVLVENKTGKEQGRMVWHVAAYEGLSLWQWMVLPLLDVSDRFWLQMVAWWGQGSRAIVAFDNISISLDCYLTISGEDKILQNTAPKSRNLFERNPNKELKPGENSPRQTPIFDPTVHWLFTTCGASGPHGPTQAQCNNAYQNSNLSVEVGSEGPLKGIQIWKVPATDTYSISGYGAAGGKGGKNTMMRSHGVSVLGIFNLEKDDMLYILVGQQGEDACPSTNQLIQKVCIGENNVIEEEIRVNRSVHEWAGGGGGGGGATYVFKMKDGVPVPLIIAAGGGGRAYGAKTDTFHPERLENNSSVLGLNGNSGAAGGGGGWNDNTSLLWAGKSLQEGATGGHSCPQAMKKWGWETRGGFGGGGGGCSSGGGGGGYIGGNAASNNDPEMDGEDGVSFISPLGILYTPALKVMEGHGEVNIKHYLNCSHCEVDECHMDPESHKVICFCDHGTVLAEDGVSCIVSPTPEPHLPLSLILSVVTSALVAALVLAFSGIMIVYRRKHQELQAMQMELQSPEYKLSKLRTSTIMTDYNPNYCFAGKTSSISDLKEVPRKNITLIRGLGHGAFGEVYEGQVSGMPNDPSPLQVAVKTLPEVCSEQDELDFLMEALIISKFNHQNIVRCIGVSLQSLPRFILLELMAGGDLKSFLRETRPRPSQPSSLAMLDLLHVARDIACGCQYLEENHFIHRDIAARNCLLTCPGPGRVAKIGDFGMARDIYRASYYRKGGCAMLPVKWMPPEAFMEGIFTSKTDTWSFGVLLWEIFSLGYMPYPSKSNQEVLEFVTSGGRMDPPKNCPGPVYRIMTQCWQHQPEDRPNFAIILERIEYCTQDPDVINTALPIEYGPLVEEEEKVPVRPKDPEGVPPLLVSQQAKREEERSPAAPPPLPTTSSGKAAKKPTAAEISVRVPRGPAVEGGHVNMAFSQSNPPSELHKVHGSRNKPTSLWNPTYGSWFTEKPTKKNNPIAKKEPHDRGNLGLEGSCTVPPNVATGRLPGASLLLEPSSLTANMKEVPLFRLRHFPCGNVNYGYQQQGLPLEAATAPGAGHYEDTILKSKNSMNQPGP
SMILES,IC50 (ALK; [1]),IC50 (JAK2; [2]),IC50 (ALK; ALK Kinase Inhibition),IC50 (JAK2; JAK2 Kinase Inhibition)
"COc1cc(N2CCC(N3CCOCC3)CC2)ccc1Nc1ncc2ccc(-c3ccccc3F)n2n1 [Example 1473, [7-(2-Fluoro-phenyl)-pyrrolo[2,1-f][1,2,4]triazin-2-yl]-[2-methoxy-4-(4-morpholin-4-yl-piperidin-1-yl)-phenyl]-amine]",,,< 100 nM,< 100 nM
"CC(C)(C)NS(=O)(=O)c1cccc(-c2ccc3cnc(Nc4ccc5ncsc5c4)nn23)c1 [Example 573, 3-[2-(Benzothiazol-6-ylamino)-pyrrolo[2,1-f][1,2,4]triazin-7-yl]-N-tert-butyl-benzenesulfonamide]",> 10000 nM,< 100 nM,,
"COc1ccccc1-c1ccc2cnc(Nc3ccc4ncn(CCN5CCOCC5)c4c3)nn12 [Example 1349, [7-(2-Methoxy-phenyl)-pyrrolo[2,1-f][1,2,4]triazin-2-yl]-[3-(2-morpholin-4-yl-ethyl)-3H-benzimidazol-5-yl]-amine]",100 to 1000 nM,< 100 nM,,
"COc1ccc(-c2ccc3cnc(Nc4ccc(N5CCN(C)CC5)nc4)nn23)cn1 [Example 1109, [7-(6-Methoxy-pyridin-3-yl)-pyrrolo[2,1-f][1,2,4]triazin-2-yl]-[6-(4-methyl-piperazin-1-yl)-pyridin-3-yl]-amine]",100 to 1000 nM,< 100 nM,,
"CS(=O)(=O)c1cccc(-c2ccc3cnc(Nc4ccc5[nH]c(CN6CCOCC6)nc5c4)nn23)c1 [Example 1537, [7-(3-Methanesulfonyl-phenyl)-pyrrolo[2,1-f][1,2,4]triazin-2-yl]-(2-morpholin-4-ylmethyl-1H-benzimidazol-5-yl)-amine]",,,1000 to 10000 nM,< 100 nM
"COc1ccc(CN2CCOCC2)cc1Nc1ncc2ccc(-c3ccccc3N(C)S(C)(=O)=O)n2n1 [Example 498, N-{2-[2-(2-Methoxy-5-morpholin-4-ylmethyl-phenylamino)-pyrrolo[2,1-f][1,2,4]triazin-7-yl]-phenyl}-N-methyl-methanesulfonamide]",1000 to 10000 nM,1000 to 10000 nM,,
"CN1CCN(c2ccc(Nc3ncc4ccc(NCc5cccc([N+](=O)[O-])c5)n4n3)cc2)CC1 [Example 1163, N(2)-[4-(4-Methyl-piperazin-1-yl)-phenyl]-N(7)-(3-nitro-benzyl)-pyrrolo[2,1-f][1,2,4]triazine-2,7-diamine]",100 to 1000 nM,< 100 nM,,
"O=S(=O)(c1cccc(-c2ccc3cnc(Nc4ccc(C5CCN(CCO)CC5)cc4)nn23)c1)N1CCCC1 [Example 678, 2-[4-(4-{7-[3-(Pyrrolidine-1-sulfonyl)-phenyl]-pyrrolo[2,1-f][1,2,4]triazin-2-ylamino}-phenyl)-piperidin-1-yl]ethanol]",100 to 1000 nM,< 100 nM,,
"CC(=O)N1CCCC(C)(C)c2ccc(Nc3ncc4ccc(-c5cccc(S(=O)(=O)NC(C)(C)C)c5)n4n3)cc21 [Example 1369, 3-[2-(1-Acetyl-5,5-dimethyl-2,3,4,5-tetrahydro-1H-benzo[b]azepin-8-ylamino)-pyrrolo[2,1-f][1,2,4]triazin-7-yl]-N-tert-butyl-benzenesulfonamide]",,,1000 to 10000 nM,< 100 nM
"CN1CCN(c2ccc(Nc3ncc4ccc(-c5cn(C)cn5)n4n3)cc2)CC1 [Example 1043, [7-(1-Methyl-1H-imidazol-4-yl)-pyrrolo[2,1-f][1,2,4]triazin-2-yl]-[4-(4-methyl-piperazin-1-yl)-phenyl]-amine]",100 to 1000 nM,< 100 nM,,
"CC(C)Oc1cccc(-c2ccc3cnc(Nc4ccc(C5CCN(CC(N)=O)CC5)cc4)nn23)c1 [Example 588, 2-(4-{4-[7-(3-Isopropoxy-phenyl)-pyrrolo[2,1-f][1,2,4]triazin-2-ylamino]-phenyl}-piperidin-1-yl)-acetamide]",100 to 1000 nM,< 100 nM,,
"COc1cc(N2CCN(C3CCOCC3)CC2)ccc1Nc1ncc2ccc(-c3ccccc3OC)n2n1 [Example 1472, [7-(2-Methoxy-phenyl)-pyrrolo[2,1-f][1,2,4]triazin-2-yl]-{2-methoxy-4-[4-(tetrahydro-pyran-4-yl)-piperazin-1-yl]-phenyl}-amine]",,,< 100 nM,< 100 nM
"COc1ccccc1-c1ccc2cnc(Nc3ccc4c(c3)CN(CC(N)=O)CC4)nn12 [Example 987, 2-{7-[7-(2-Methoxy-phenyl)-pyrrolo[2,1-f][1,2,4]triazin-2-ylamino]-3,4-dihydro-1H-isoquinolin-2-yl}-acetamide]",100 to 1000 nM,< 100 nM,,

# Now from value to molecule:
IC50 (ALK; [1]),IC50 (JAK2; [2]),IC50 (ALK; ALK Kinase Inhibition),IC50 (JAK2; JAK2 Kinase Inhibition),SMILES
100 to 1000 nM,< 100 nM,,,"COc1ccccc1-c1ccc2cnc(Nc3ccc(C4CN(CC(N)=O)C4)cc3)nn12 [Example 583, 2-(3-{4-[7-(2-Methoxy-phenyl)-pyrrolo[2,1-f][1,2,4]triazin-2-ylamino]-phenyl}-azetidin-1-yl)-acetamide]"
100 to 1000 nM,< 100 nM,,,"CN1CCN(c2cccc(Nc3ncc4ccc(-c5cnn(S(C)(=O)=O)c5)n4n3)c2)CC1 [Example 950, [7-(1-Methanesulfonyl-1H-pyrazol-4-yl)-pyrrolo[2,1-f][1,2,4]triazin-2-yl]-[3-(4-methyl-piperazin-1-yl)-phenyl]-amine]"
< 100 nM,< 100 nM,,,"COc1cc(N2CCC(N3CCOCC3)CC2)ccc1Nc1ncc2ccc(-c3ccc(F)cc3OC)n2n1 [Example 510, [7-(4-Fluoro-2-methoxy-phenyl)-pyrrolo[2,1-f][1,2,4]triazin-2-yl]-[2-methoxy-4-(4-morpholin-4-yl-piperidin-1-yl)-phenyl]-amine]"
< 100 nM,100 to 1000 nM,,,COc1cc(C2CCN(C)CC2)ccc1Nc1ncc2ccc(-c3cccc(S(=O)(=O)NC4CC4)c3)n2n1 [Example 696]
< 100 nM,< 100 nM,,,"COc1cc(Cl)ccc1-c1ccc2cnc(Nc3ccc(N4CCC(C(=O)N5CCN(C)CC5)CC4)cc3)nn12 [Example 484, (1-{4-[7-(4-Chloro-2-methoxy-phenyl)-pyrrolo[2,1-f][1,2,4]triazin-2-ylamino]-phenyl}-piperidin-4-yl)-(4-methyl-piperazin-1-yl)-methanone]"
100 to 1000 nM,< 100 nM,,,"CC(=O)N1CC(C)(C)c2ccc(Nc3ncc4ccc(-c5cnn(C)c5)n4n3)cc21 [Example 968, 1-{3,3-Dimethyl-6-[7-(1-methyl-1H-pyrazol-4-yl)-pyrrolo[2,1-f][1,2,4]triazin-2-ylamino]-2,3-dihydro-indol-1-yl}-ethanone]"
< 100 nM,100 to 1000 nM,,,"COc1cc(C2CCN(CC(C)(C)O)CC2)ccc1Nc1ncc2ccc(-c3ccccc3N(C)S(C)(=O)=O)n2n1 [Example 866, N-[2-(2-{4-[1-(2-Hydroxy-2-methyl-propyl)-piperidin-4-yl]-2-methoxy-phenylamino}-pyrrolo[2,1-f][1,2,4]triazin-7-yl)-phenyl]-N-methyl-methanesulfonamide]"
< 100 nM,100 to 1000 nM,,,"COc1cc(C2CCN(C[C@H](O)CO)CC2)ccc1Nc1ncc2ccc(-c3ccccc3N(C)S(C)(=O)=O)n2n1 [Example 769, N-[2-(2-{4-[1-((S)-2,3-Dihydroxy-propyl)-piperidin-4-yl]-2-methoxy-phenylamino}-pyrrolo[2,1-f][1,2,4]triazin-7-yl)-phenyl]-N-methyl-methanesulfonamide]"
< 100 nM,< 100 nM,,,COc1cc(N2CCC(N3CCOCC3)CC2)c(C)cc1Nc1ncc2ccc(-c3ccccc3OC)n2n1 [Example 539]
